Legend:
[1] = system: mice with constipation due to overexpression of human αS; details: oral; cited from earlier work
[2] = Pharmacokinetics of orally administered squalamine (ENT-01) in Stage 1; type: in vivo, human; details: PD patients, this study
Method: PK data were collected on the 10 patients enrolled in Stage 1 and 10 patients enrolled in Stage 2 to determine the extent of systemic absorption. In Stage 1, PK data were obtained at each visit, pre-medication, at 1, 2, 4, 8 and 24 hours (Table 10). In Stage 2, PK was measured on days 1 and 6 of the randomization period pre-medication, at 1, 2, 4 and 8 hours (Table 11).
The mean Cmax, Tmax and T1/2 and AUC of the squalamine ion following squalamine (ENT-01) oral dosing for Stage 1 patients. The PK analyses are only approximate, as the lower limit of the validated concentration range was 10 ng/ml; most of the measured concentrations fell below that value. The mean Cmax, Tmax and T1/2 and AUC of the squalamine ion following squalamine (ENT-01) oral dosing for Stage 2 patients. The PK analyses are only approximate, as the lower limit of the validated concentration range was 0.5 ng/ml.

[3] = mice, following systemic administration; into the duodenum through the biliary tract; cited from earlier work
[4] = system: IPANs (intrinsic primary afferent neuron); details: perfusion through lumen of isolated bowel segment; cited from earlier work
[5] = cited from earlier work

CC(C)[C@@H](CC[C@@H](C)[C@H]1CC[C@H]2[C@@H]3[C@H](O)C[C@H]4C[C@@H](NCCCNCCCCN)CC[C@]4(C)[C@H]3CC[C@]12C)OS(=O)(=O)O [squalamine]
effect on gastro-intestinal motility [1]: stimulates gastro-intestinal motility
systemic absorption following oral administration [2]: not significantly absorbed into the systemic circulation
route of clearance [3]: cleared by the liver and excreted as the intact molecule
effect on propulsive peristaltic contractions [4]: increasing the frequency of propulsive peristaltic contractions
drug related GI toxicology ([5]; published clinical trials involving systemic administration): has not been reported
effect of intravenous administration on gastrointestinal motility ([5]; systemic blood levels one thousand-fold greater than after oral dosing, prior studies): not associated with increased gastrointestinal motility

Reference: patent publication US20200129528A1, “METHODS FOR TREATING BLOOD PRESSURE CONDITIONS USING AMINOSTEROL COMPOSITIONS” (Enterin, Inc., priority 2018, published 2020)
